# In ChEMBL document CHEMBL1132267, “Synthesis and antibacterial properties of beta-diketone acrylate bioisosteres of pseudomonic acid A” (Bioorg Med Chem Lett, 1999):
# What was measured:
# Streptococcus pneumoniae = test: In vitro antibacterial activity against Streptococcus pneumoniae PU7; format: functional
# Haemophilus influenzae = test: In vitro antibacterial activity against Haemophilus influenzae Q1; format: functional
# Moraxella catarrhalis = test: In vitro antibacterial activity against Moraxella catarrhalis 1502; format: functional
# Staphylococcus aureus = test: In vitro antibacterial activity against Staphylococcus aureus Oxford; format: functional
# Streptococcus pyogenes = test: In vitro antibacterial activity against Streptococcus pyogenes CN10; format: functional
# [1] = tested on: Isoleucine--tRNA ligase (Moraxella catarrhalis); test: In vitro antibacterial activity against isoleucyl-tRNA synthetase from Moraxella catarrhalis 1502
# [2] = tested on: Isoleucine--tRNA ligase (Haemophilus influenzae); test: In vitro antibacterial activity against isoleucyl-tRNA synthetase from Haemophilus influenzae Q1
# Homo sapiens = test: The compound was tested for its percentage serum binding affinity in human […]; format: organism-based
# [3] = tested on: Isoleucine--tRNA ligase (Streptococcus pneumoniae); test: In vitro antibacterial activity against isoleucyl-tRNA synthetase from Streptococcus pneumoniae PU7
# [4] = molecular target: T1, Isoleucine--tRNA ligase (Staphylococcus aureus) (UniProt P41972); test: In vitro antibacterial activity against isoleucyl-tRNA synthetase from Staphylococcus aureus Oxford; format: functional
# T1 sequence (whole entry): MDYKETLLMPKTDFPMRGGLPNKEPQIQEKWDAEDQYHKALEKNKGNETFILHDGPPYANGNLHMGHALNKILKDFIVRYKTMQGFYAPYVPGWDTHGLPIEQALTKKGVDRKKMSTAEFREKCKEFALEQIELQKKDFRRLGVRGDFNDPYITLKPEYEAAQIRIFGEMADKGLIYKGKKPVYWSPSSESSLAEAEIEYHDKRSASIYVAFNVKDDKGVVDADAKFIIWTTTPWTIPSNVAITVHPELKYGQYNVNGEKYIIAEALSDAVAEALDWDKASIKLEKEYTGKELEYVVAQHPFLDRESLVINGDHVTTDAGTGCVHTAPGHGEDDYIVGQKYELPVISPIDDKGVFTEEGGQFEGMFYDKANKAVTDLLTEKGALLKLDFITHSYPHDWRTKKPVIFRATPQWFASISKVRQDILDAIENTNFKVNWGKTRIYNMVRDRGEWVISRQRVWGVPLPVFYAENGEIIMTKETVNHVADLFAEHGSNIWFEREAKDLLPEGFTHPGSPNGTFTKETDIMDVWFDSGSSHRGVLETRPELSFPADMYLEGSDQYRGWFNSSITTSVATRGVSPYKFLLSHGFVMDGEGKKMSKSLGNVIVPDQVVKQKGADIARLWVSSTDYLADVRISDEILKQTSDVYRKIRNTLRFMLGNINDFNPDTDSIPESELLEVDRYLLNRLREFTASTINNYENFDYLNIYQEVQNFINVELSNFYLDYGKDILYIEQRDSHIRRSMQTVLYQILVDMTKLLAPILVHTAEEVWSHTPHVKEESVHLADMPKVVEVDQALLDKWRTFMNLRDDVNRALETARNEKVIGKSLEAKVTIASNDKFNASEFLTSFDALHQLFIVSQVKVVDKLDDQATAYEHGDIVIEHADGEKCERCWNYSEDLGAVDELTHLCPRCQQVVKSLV
# Mus musculus [5] = test: Concentration required to protect 50% of the mice from death after s.c. administration of compound tested in vivo; format: functional
# Mus musculus [6] = test: The area under curve in vivo in mouse blood level after oral administration at dose 50 mk/kg e-1; format: ADME, organism-based
# Mus musculus [7] = test: The compound was tested for its percentage serum binding affinity in mouse […]; format: functional
# Mus musculus [8] = test: The area under curve in vivo in mouse blood level after subcutaneous administration at dose 50 mk/kg e-1; format: ADME, organism-based; settings: sc
# [9] = tested on: Isoleucine--tRNA ligase (Streptococcus pyogenes); test: In vitro antibacterial activity against isoleucyl-tRNA synthetase from Streptococcus pyogenes CN10
# Mus musculus [10] = test: Concentration required to protect 50% of the mice from death after oral administration of compound tested in vivo; format: functional
SMILES,MIC (Streptococcus pneumoniae) [µg/mL],MIC (Haemophilus influenzae) [µg/mL],MIC (Moraxella catarrhalis) [µg/mL],MIC (Staphylococcus aureus) [µg/mL],MIC (Streptococcus pyogenes) [µg/mL],MIC [1] [µg/mL],MIC [2] [µg/mL],Bound (Homo sapiens) [%],MIC [3] [µg/mL],MIC [4] [µg/mL],CD50 (Mus musculus [5]) [mg/kg],AUC (Mus musculus [6]) [ng·h/mL],Bound (Mus musculus [7]) [%],AUC (Mus musculus [8]) [ng·h/mL],MIC [9] [µg/mL],CD50 (Mus musculus [10]) [mg/kg]
C[C@H]([C@@H]1O[C@H]1C[C@H]1CO[C@@H](CC(=O)CC(=O)c2ccc(N(C)C)cc2)[C@H](O)[C@@H]1O)[C@H](C)O,0.5,0.06,0.5,2,1,–,–,–,–,–,–,–,–,–,–,–
COc1ccc(C(=O)CC(=O)C[C@@H]2OC[C@H](C[C@@H]3O[C@H]3[C@@H](C)[C@H](C)O)[C@@H](O)[C@H]2O)cc1,–,–,–,–,–,0.25,0.06,75,0.25,0.5,3.8,5920,51,14900,0.25,28
CCCCC(=O)CC(=O)C[C@@H]1OC[C@H](C[C@@H]2O[C@H]2[C@@H](C)[C@H](C)O)[C@@H](O)[C@H]1O,8,0.5,2,8,2,–,–,–,–,–,–,–,–,–,–,–
C[C@H]([C@@H]1O[C@H]1C[C@H]1CO[C@@H](CC(=O)CC(=O)C2=CCCCC2)[C@H](O)[C@@H]1O)[C@H](C)O,0.5,0.13,2,2,0.5,–,–,–,–,–,–,–,–,–,–,–
C/C(=C\C(=O)OCCCCCCCCC(=O)O)C[C@@H]1OC[C@H](C[C@@H]2O[C@H]2[C@@H](C)[C@H](C)O)[C@@H](O)[C@H]1O [MUPIROCIN],0.13,0.06,0.13,0.13,0.13,–,–,–,–,–,–,–,–,–,–,–
C[C@H]([C@@H]1O[C@H]1C[C@H]1CO[C@@H](CC(=O)CC(=O)c2ccc(N(C)C)nc2)[C@H](O)[C@@H]1O)[C@H](C)O,–,–,–,–,–,1,0.06,84,0.5,1,12,7180,66,13300,1,23
C[C@H]([C@@H]1O[C@H]1C[C@H]1CO[C@@H](CC(=O)CC(=O)c2cnn(C)c2)[C@H](O)[C@@H]1O)[C@H](C)O,1,0.13,0.5,4,1,–,–,–,–,–,–,–,–,–,–,–
COc1ccc(C(=O)/C=C(\C)C[C@@H]2OC[C@H](C[C@@H]3O[C@H]3[C@@H](C)[C@H](C)O)[C@@H](O)[C@H]2O)cc1,–,–,–,–,–,0.25,0.03,96,0.25,0.5,12,1770,79,5600,0.25,18
COc1ccc(/C=C/C(=O)C[C@@H]2OC[C@H](C[C@@H]3O[C@H]3[C@@H](C)[C@H](C)O)[C@@H](O)[C@H]2O)cc1,8,1,16,128,8,–,–,–,–,–,–,–,–,–,–,–
C[C@H]([C@@H]1O[C@H]1C[C@H]1CO[C@@H](CC(=O)CC(=O)c2ccc(C#N)cc2)[C@H](O)[C@@H]1O)[C@H](C)O,0.25,0.06,0.5,2,0.13,–,–,–,–,–,–,–,–,–,–,–
CCOC(OCC)c1ccc(C(=O)CC(=O)C[C@@H]2OC[C@H](C[C@@H]3O[C@H]3[C@@H](C)[C@H](C)O)[C@@H](O)[C@H]2O)cc1,1,1,0.5,1,0.5,–,–,–,–,–,–,–,–,–,–,–
C[C@H]([C@@H]1O[C@H]1C[C@H]1CO[C@@H](CC(=O)CC(=O)c2ccc(F)cc2)[C@H](O)[C@@H]1O)[C@H](C)O,–,–,–,–,–,0.5,0.06,80,0.13,0.5,12,4930,–,6800,0.25,19

# Further lines, with some results ahead:
MIC (Streptococcus pneumoniae) [µg/mL],MIC (Haemophilus influenzae) [µg/mL],MIC (Moraxella catarrhalis) [µg/mL],MIC (Staphylococcus aureus) [µg/mL],MIC (Streptococcus pyogenes) [µg/mL],SMILES,MIC [1] [µg/mL],MIC [2] [µg/mL],Bound (Homo sapiens) [%],MIC [3] [µg/mL],MIC [4] [µg/mL],CD50 (Mus musculus [5]) [mg/kg],AUC (Mus musculus [6]) [ng·h/mL],Bound (Mus musculus [7]) [%],AUC (Mus musculus [8]) [ng·h/mL],MIC [9] [µg/mL],CD50 (Mus musculus [10]) [mg/kg]
0.5,0.25,1,1,0.5,C[C@H]([C@@H]1O[C@H]1C[C@H]1CO[C@@H](CC(=O)CC(=O)c2ccccc2)[C@H](O)[C@@H]1O)[C@H](C)O,–,–,–,–,–,–,–,–,–,–,–
0.13,0.13,0.25,1,0.13,COc1ccc(C(=O)CC(=O)C[C@@H]2OC[C@H](C[C@@H]3O[C@H]3[C@@H](C)[C@H](C)O)[C@@H](O)[C@H]2O)cn1,–,–,–,–,–,–,–,–,–,–,–
2,0.13,2,1,1,C[C@H]([C@@H]1O[C@H]1C[C@H]1CO[C@@H](CC(=O)CC(=O)c2ccoc2)[C@H](O)[C@@H]1O)[C@H](C)O,–,–,–,–,–,–,–,–,–,–,–
0.25,0.13,2,1,0.5,COc1ccc(C(=O)/C=C/C[C@@H]2OC[C@H](C[C@@H]3O[C@H]3[C@@H](C)[C@H](C)O)[C@@H](O)[C@H]2O)cc1,–,–,–,–,–,–,–,–,–,–,–
0.5,0.13,1,1,1,C[C@H]([C@@H]1O[C@H]1C[C@H]1CO[C@@H](CC(=O)CC(=O)c2ccsc2)[C@H](O)[C@@H]1O)[C@H](C)O,–,–,–,–,–,–,–,–,–,–,–
1,0.25,2,2,1,C[C@H]([C@@H]1O[C@H]1C[C@H]1CO[C@@H](CC(=O)CC(=O)c2cnc(N(C)C)nc2)[C@H](O)[C@@H]1O)[C@H](C)O,–,–,–,–,–,–,–,–,–,–,–
